Patent US20140323300A1, “HERBICIDAL COMPOUNDS” (SYNGENTA LIMITED, priority 2011, published 2014)

Columns and labels:
Assay type in all cases: in vivo
[1] = tested on: Alopecurus myosuroides (ALOMY); test: Post-emergence glasshouse herbicide test; settings: post-emergence (sprayed after 8 days cultivation), 1000 g/h, evaluated after 13 days, five point scale
Description: (§1) Seeds of a variety of test species are sown in standard soil in pots (Alopecurus myosuroides (ALOMY), Setaria faberi (SETFA), Echinochloa crus-galli (ECHCG), Solanum nigrum (SOLNI), Amaranthus retoflexus (AMARE), Ipomoea hederacea (IPOHE)). After cultivation for one day (pre-emergence) or after 8 days cultivation (post-emergence) under controlled conditions in a glasshouse (at 24/16° C., day/night; 14 hours light; 65% humidity), the plants are sprayed with an aqueous spray solution derived from the formulation of the technical active ingredient in acetone/water (50:50) solution containing 0.5% Tween 20 (polyoxyethelyene sorbitan monolaurate, CAS RN 9005-64-5). Compounds are applied at 1000 g/h. The test plants are then grown in a glasshouse under controlled conditions in a glasshouse (at 24/16° C., day/night; 14 hours light; 65% humidity) and watered twice daily. After 13 days for pre and post-emergence, the test is evaluated for the percentage damage caused to the plant. The biological activities are shown in the following table on a five point scale (5=80-100%; 4=60-79%; 3=40-59%; 2=20-39%; 1=0-19%).

[2] = tested on: Amaranthus retoflexus (AMARE); test: Post-emergence glasshouse herbicide test; settings: post-emergence (sprayed after 8 days cultivation), 1000 g/h, evaluated after 13 days, five point scale
Description: as §1

[3] = tested on: Echinochloa crus-galli (ECHCG); test: Post-emergence glasshouse herbicide test; settings: post-emergence (sprayed after 8 days cultivation), 1000 g/h, evaluated after 13 days, five point scale
Description: as §1

[4] = tested on: Ipomoea hederacea (IPOHE); test: Post-emergence glasshouse herbicide test; settings: post-emergence (sprayed after 8 days cultivation), 1000 g/h, evaluated after 13 days, five point scale
Description: as §1

Setaria faberi (SETFA) [5] = test: Post-emergence glasshouse herbicide test; settings: post-emergence (sprayed after 8 days cultivation), 1000 g/h, evaluated after 13 days, five point scale
Description: as §1

Solanum nigrum (SOLNI) [6] = test: Post-emergence glasshouse herbicide test; settings: post-emergence (sprayed after 8 days cultivation), 1000 g/h, evaluated after 13 days, five point scale
Description: as §1

[7] = tested on: Alopecurus myosuroides (ALOMY); test: Pre-emergence glasshouse herbicide test; settings: pre-emergence (sprayed after one day cultivation), 1000 g/h, evaluated after 13 days, five point scale
Description: as §1

[8] = tested on: Amaranthus retoflexus (AMARE); test: Pre-emergence glasshouse herbicide test; settings: pre-emergence (sprayed after one day cultivation), 1000 g/h, evaluated after 13 days, five point scale
Description: as §1

[9] = tested on: Echinochloa crus-galli (ECHCG); test: Pre-emergence glasshouse herbicide test; settings: pre-emergence (sprayed after one day cultivation), 1000 g/h, evaluated after 13 days, five point scale
Description: as §1

[10] = tested on: Ipomoea hederacea (IPOHE); test: Pre-emergence glasshouse herbicide test; settings: pre-emergence (sprayed after one day cultivation), 1000 g/h, evaluated after 13 days, five point scale
Description: as §1

Setaria faberi (SETFA) [11] = test: Pre-emergence glasshouse herbicide test; settings: pre-emergence (sprayed after one day cultivation), 1000 g/h, evaluated after 13 days, five point scale
Description: as §1

Solanum nigrum (SOLNI) [12] = test: Pre-emergence glasshouse herbicide test; settings: pre-emergence (sprayed after one day cultivation), 1000 g/h, evaluated after 13 days, five point scale
Description: as §1

| Compound | percentage damage caused to the plant, POST Application ALOMY [1] | percentage damage caused to the plant, POST Application AMARE [2] | percentage damage caused to the plant, POST Application ECHCG [3] | percentage damage caused to the plant, POST Application IPOHE [4] | percentage damage caused to the plant, POST Application SETFA (Setaria faberi (SETFA) [5]) | percentage damage caused to the plant, POST Application SOLNI (Solanum nigrum (SOLNI) [6]) | percentage damage caused to the plant, PRE Application ALOMY [7] | percentage damage caused to the plant, PRE Application AMARE [8] | percentage damage caused to the plant, PRE Application ECHCG [9] | percentage damage caused to the plant, PRE Application IPOHE [10] | percentage damage caused to the plant, PRE Application SETFA (Setaria faberi (SETFA) [11]) | percentage damage caused to the plant, PRE Application SOLNI (Solanum nigrum (SOLNI) [12]) |
| --- | --- | --- | --- | --- | --- | --- | --- | --- | --- | --- | --- | --- |
| CSc1cnn(-c2ccc(C(F)(F)F)nc2C)c(=O)c1O [Compound 1.025] | 2 (2=20-39%) | 5 (5=80-100%) | 5 (5=80-100%) | 5 (5=80-100%) | 5 (5=80-100%) | 5 (5=80-100%) | 2 (2=20-39%) | 5 (5=80-100%) | 5 (5=80-100%) | 5 (5=80-100%) | 5 (5=80-100%) | 5 (5=80-100%) |
| Cc1cnn(-c2ccc(S(C)(=O)=O)c(C3=NOCC3)c2C)c(=O)c1O [Compound 1.016, 2-[3-(4,5-dihydroisoxazol-3-yl)-2-methyl-4-methylsulfonyl-phenyl]-4-hydroxy-5-methyl-pyridazin-3-one] | 5 (5=80-100%) | 5 (5=80-100%) | 5 (5=80-100%) | 5 (5=80-100%) | 5 (5=80-100%) | 5 (5=80-100%) | 5 (5=80-100%) | 5 (5=80-100%) | 5 (5=80-100%) | 4 (4=60-79%) | 5 (5=80-100%) | 5 (5=80-100%) |
| C=Cc1cnn(-c2ccc(C(F)(F)F)cc2S(C)(=O)=O)c(=O)c1O [Compound 1.053] | 4 (4=60-79%) | 5 (5=80-100%) | 5 (5=80-100%) | 5 (5=80-100%) | 5 (5=80-100%) | 5 (5=80-100%) | 4 (4=60-79%) | 5 (5=80-100%) | 5 (5=80-100%) | 5 (5=80-100%) | 5 (5=80-100%) | 5 (5=80-100%) |
| CCc1ccc(-n2ncc(CC)c(O)c2=O)c(S(C)(=O)=O)c1 [Compound 1.038] | 4 (4=60-79%) | 5 (5=80-100%) | 5 (5=80-100%) | 5 (5=80-100%) | 5 (5=80-100%) | 5 (5=80-100%) | 4 (4=60-79%) | 5 (5=80-100%) | 5 (5=80-100%) | 5 (5=80-100%) | 5 (5=80-100%) | 5 (5=80-100%) |
| CCc1cnn(-c2ccc(Cl)cc2S(C)(=O)=O)c(=O)c1O [Compound 1.037] | 5 (5=80-100%) | 5 (5=80-100%) | 5 (5=80-100%) | 4 (4=60-79%) | 5 (5=80-100%) | 5 (5=80-100%) | 5 (5=80-100%) | 5 (5=80-100%) | 5 (5=80-100%) | 4 (4=60-79%) | 5 (5=80-100%) | 5 (5=80-100%) |
| O=c1c(O)c(Cl)cnn1-c1ccc(C(F)(F)F)cc1Cl [Compound 1.002, 5-chloro-2-[2-chloro-4-(trifluoromethyl)phenyl]-4-hydroxy-pyridazin-3-one] | 1 (1=0-19%) | 5 (5=80-100%) | 5 (5=80-100%) | 5 (5=80-100%) | 5 (5=80-100%) | 5 (5=80-100%) | 2 (2=20-39%) | 5 (5=80-100%) | 5 (5=80-100%) | 4 (4=60-79%) | 4 (4=60-79%) | 5 (5=80-100%) |
| Cc1c(-n2ncc([S+](C)[O-])c(O)c2=O)ccc(S(C)(=O)=O)c1C1=NOCC1 (stereo not drawn) [Compound 1.043] | 1 (1=0-19%) | 5 (5=80-100%) | 3 (3=40-59%) | 3 (3=40-59%) | 3 (3=40-59%) | 4 (4=60-79%) | 1 (1=0-19%) | 5 (5=80-100%) | 3 (3=40-59%) | 3 (3=40-59%) | 3 (3=40-59%) | 4 (4=60-79%) |
| CSc1cnn(-c2ccc(S(C)(=O)=O)c(C3=NOCC3)c2C)c(=O)c1O [Compound 1.018, 2-[3-(4,5-dihydroisoxazol-3-yl)-2-methyl-4-methylsulfonyl-phenyl]-4-hydroxy-5-methylsulfanyl-pyridazin-3-one] | 2 (2=20-39%) | 5 (5=80-100%) | 2 (2=20-39%) | 5 (5=80-100%) | 2 (2=20-39%) | 5 (5=80-100%) | 2 (2=20-39%) | 5 (5=80-100%) | 2 (2=20-39%) | 5 (5=80-100%) | 2 (2=20-39%) | 5 (5=80-100%) |
